Assay [1] deals with phosphorylated Akt at serine 473 (pAKTs473) in primary lung fibroblasts derived from explanted tissue. The assay is described as follows: Phosphorylated Akt (Ser473) in vitro immunoassay (MSD), fibroblasts from explanted tissue. Format: cell-based. The following applies: Homo sapiens, Primary lung fibroblast, 96-well, compound 2 h, PDGF-BB 10 ng/ml 15 min, read-out: mean pIC50, pAKTs473 immunoassay (converted). The source says: Immunoassay using the Meso Scale Discovery (MSD) platform to measure the effect of test compounds on phosphorylated Akt at serine 473 (pAKTs473) in primary lung fibroblasts derived from explanted tissue. The human biological samples were sourced ethically and their research use was in accord with the terms of the informed consents under an IRB/EC approved protocol.
Human lung fibroblasts were routinely maintained in Dulbecco's Modified Eagle Medium (DMEM; Gibco, catalogue no. 21969-035) supplemented with 10% foetal bovine serum (FBS (heat-inactivated); Gibco, catalogue no. 10270-106) and 4 mM L-glutamine (Gibco, catalogue no. 25030024) at 37° C. in 10% CO2.
For the assay, cells were harvested using Trypsin/EDTA (Gibco, catalogue no. 25300-062), resuspended to give 1.2×10^5 cells/ml and 100 ul/well seeded into 96-well plates (Corning, Catalogue No. 3596) in DMEM supplemented with 0.4% FCS and 4 mM L-glutamine and incubated overnight at 37° C. in 10% CO2.
Test compounds were dissolved in 100% DMSO to give 10 mM stock solutions and serially diluted to generate a 10-point concentration response curve. Compounds were further diluted 100-fold into 96-well V-bottom polypropylene plates (Greiner, Catalogue no. 651201) with DMEM supplemented with 0.4% FCS and 4 mM L-glutamine to give 100 µM top compound concentration in 1% DMSO.
Compounds were further diluted 10-fold by transfer to 96-well plates containing cells ([…] top concentration, 0.1% DMSO final) and incubated for 2 h at 37° C. in 10% CO2, prior to stimulation with platelet-derived growth factor (PDGF)-BB (Gibco, Catalogue no. PHG0041) at 10 ng/ml (final) for 15 min at 37° C. in 10% CO2. Cell assay plates were then incubated on ice and treated with lysis buffer (Cell Signalling Technology, Catalogue No. 9803) containing protease and phosphatase inhibitors (Halt, Thermo Scientific, Catalogue No. 78444) for 30 min.
MSD plates (MSD, Phospho(Ser473)/Total Akt Whole Cell Lysate Kit, Catalogue No. K15100D-3) were blocked with 1×blocking buffer as per the manufacturer's instructions at RT with shaking, followed by washing (×3) with Tris-buffered saline containing 0.05% Tween-20 (TBST). Cell lysates (30 ul) were added and MSD plates incubated for 1 h at RT with shaking.
Plates were washed with TBST (×3), prior to addition of SULFO-TAG Anti-Total Akt Antibody as per the manufacturer's instructions and shaken at RT for 1 h. After washing with 1×TBST (×3), read buffer (1×) (MSD, Catalogue No. R92TC-1) was added as per the manufacturer's instructions before detecting electrochemiluminescence (MSD Sector Imager 600).
Data analysis was performed using non-linear regression analysis to determine IC50 values for test compounds. Minimum (no PDGF-BB stimulation) and maximum responses (+PDGF-BB stimulation) were monitored for assay quality control.

The test system of assay [2] is type I collagen deposition in primary lung fibroblasts derived from human tissue. The assay is described as follows: Type I collagen deposition (scar-in-a-jar) high content screening assay. The note with it: Primary lung fibroblast, 72 h, human pulmonary fibroblasts, 96-well, TGFβ-1 1 ng/ml 72 h, collagen intensity, read-out: mean pIC50, type I collagen deposition (scar-in-a-jar) (converted). Type of assay: cell-based. The method, then: Cellular type I collagen deposition was measured by adapting a published method; scar-in-a-jar (Chen et al., 2009) to primary lung fibroblasts derived from human tissue and combining with high content analysis to permit fluorescent quantification of collagen deposited in the extracellular matrix (ECM). The human biological samples were sourced ethically and their research use was in accord with the terms of the informed consents under an IRB/EC approved protocol. Human pulmonary fibroblasts were maintained in DMEM media (Gibco, Catalogue No 21969) supplemented with 4 mM L-glutamine (Gibco Catalogue No 25030-024) and 100/heat inactivated FBS (Gibco #10270-106, Lot #42F6663K) at 37° C. in 10%/CO2. Cells were harvested and seeded at 10,000 cells per well (85 μL/well) into black walled 96 well imaging plates (BD Falcon, 353219) in assay media (0.4%/heat inactivated FBS, 4 mM L-glutamine) and incubated overnight at 37° C., 10%/CO2.
Test compounds were dissolved in 1000/DMSO to give 10 mM stocks which were further diluted (serial 1:3) to generate 10 point concentration response curves. Assay media was supplemented with 112.5 mg/ml Ficoll 70 (Sigma, Catalogue No F2878), 75 mg/ml Ficoll 400 (Sigma, Catalogue No F4375) and 50 µg/ml ascorbic acid (Sigma, Catalogue No A8960). 3 μL compound were added to 297 μL assay media (10× compound final concentration in 1% DMSO).
Diluted compounds (15 μL) were transferred to plates containing cells and incubated for 3 h at 37° C. in 10% CO2. Transforming growth factor (TGF)β-1 (R&D Systems, Catalogue No 100-B/CF) was reconstituted according to manufacturer's instructions to give 10 µg/mL (stock) and further diluted (1 in 3333) in assay media containing Ficoll and ascorbic acid. 50 μL TGFβ-1 was added to cell plates (1 ng/ml final) and cells incubated for 72 h at 37° C. in 10% CO2.
Media was removed and cells were fixed with 50 µL/well 100% ice-cold methanol (2 min). Methanol was decanted and cells washed with PBS (3×). To permeabilise, cells were incubated with PBS containing 0.1% Triton X 100 for 90 sec, followed by PBS wash (3×). Cells were incubated with mouse anti human type I collagen monoclonal antibody (Sigma, Catalogue No C2456) diluted 1:1000 in PBS overnight at 4° C. Cells were washed with PBS containing 0.05% Tween-20 (3×) and incubated with secondary alexa fluor 488 goat-anti-mouse antibody (Invitrogen, Catalogue No A11001, 1 in 500 in PBS) and Hoechst 33342 (Sigma, Catalogue No H21492), 1 in 10000 in PBS) for 1 h at RT, prior to washing with PBS containing 0.05% Tween (×3) before finally adding 200 µL/well PBS.
Type I collagen immunoreactivity was detected using the Thermofisher CellInsight NXT set to excitation and emission wavelengths for DAPI and FITC with exposure adjusted to appropriate levels. Images were analysed using Cellomics Studio software (Version 6.6.0, build 8153) and computational algorithms to quantify “collagen intensity” and “cell count”.
Data analysis was performed by determining % response values for test compounds relative to the maximum (TGFβ-1 stimulation) fitting a ‘log(inhibitor) vs. response-Variable slope (four parameters)’ curve and recording pIC50 (inverse of Log IC50) values for test compounds.

With `CC[C@H]1COCCN1c1cc(CS(C)(=O)=O)nc(-c2ccc3[nH]c(CNC)cc3n2)n1` [Example 1, [(5-{4-[(3S)-3-ethylmorpholin-4-yl]-6-(methanesulfonylmethyl)pyrimidin-2-yl}-1H-pyrrolo[3,2-b]pyridin-2-yl)methyl](methyl)amine], the IC50 in assay [1] was below 0.1 µM.
As to `CC[C@H]1COCCN1c1cc(C2(S(C)(=O)=O)CCNCC2)cc(-c2ccc3[nH]c(C)cc3n2)n1` [Example 18, (S)-3-ethyl-4-(6-(2-methyl-1H-pyrrolo[3,2-b]pyridin-5-yl)-4-(4-(methylsulfonyl)piperidin-4-yl)pyridin-2-yl)morpholine], the IC50 in assay [2] was below 3.98 µM.
Turning to `CC[C@H]1COCCN1c1cc(CS(N)(=O)=O)nc(-c2ccc3[nH]c(CNC)cc3n2)n1` [Example 6, {6-[(3S)-3-ethylmorpholin-4-yl]-2-{2-[(methylamino)methyl]-1H-pyrrolo[3,2-b]pyridin-5-yl}pyrimidin-4-yl}methanesulfonamide], the results for the IC50 in assay [1] and in assay [2] were below 0.1 µM and above 3.98 µM, respectively.
As to `CC[C@H]1COCCN1c1cc(C2(S(C)(=O)=O)CCOCC2)nc(-c2ccc3[nH]c(CO)cc3n2)n1` [Example 4, (5-{4-[(3S)-3-ethylmorpholin-4-yl]-6-(4-methanesulfonyloxan-4-yl)pyrimidin-2-yl}-1H-pyrrolo[3,2-b]pyridin-2-yl)methanol], in assay [2], the IC50 is above 3.98 µM.
Still for that read-out and setting: the value for `CC[C@H]1COCCN1c1cc(CS(C)(=O)=O)nc(-c2ccc3[nH]c(CO)cc3n2)n1` [Example 2, (S)-(5-(4-(3-ethylmorpholino)-6-((methylsulfonyl)methyl)pyrimidin-2-yl)-1H-pyrrolo[3,2-b]pyridin-2-yl)methanol] was below 3.98 µM; that for `CC[C@H]1COCC(=O)N1c1cc(CS(C)(=O)=O)cc(-c2ccc3[nH]c(CO)cc3n2)n1` [Example 27] was below 3.98 µM.
For `CCc1cc2nc(-c3nc(CS(C)(=O)=O)cc(N4C(=O)COC[C@@H]4CC)n3)ccc2[nH]1` [Example 15, (5S)-5-ethyl-4-(2-{2-ethyl-1H-pyrrolo[3,2-b]pyridin-5-yl}-6-(methanesulfonylmethyl)pyrimidin-4-yl)morpholin-3-one], the IC50 in assay [1] was below 0.1 µM.
`CNCc1cc2nc(-c3cc(CS(C)(=O)=O)cc(N4CCO[C@H](C)[C@H]4C)n3)ccc2[nH]1` [Example 8, 1-(5-(6-((2R,3R)-2,3-dimethylmorpholino)-4-((methylsulfonyl)methyl)pyridin-2-yl)-1Hpyrrolo[3,2-b]pyridin-2-yl)-Nmethylmethanamine]: the IC50 in assay [2] is below 3.98 µM.
As to `CC[C@H]1COCC(=O)N1c1cc(CS(C)(=O)=O)cc(-c2ccc3[nH]c(C)cc3n2)n1` [Example 24, (S)-5-ethyl-4-(6-(2-methyl-1H-pyrrolo[3,2-b]pyridin-5-yl)-4-((methylsulfonyl)methyl)pyridin-2-yl)morpholin-3-one], the IC50 in assay [1] is below 0.1 µM.

These data come from patent publication US20220306623A1, “PYRIDYL OR PYRIMIDYL MTOR KINASE INHIBITORS” (GLAXOSMITHKLINE INTELLECTUAL PROPERTY DEVELOPMENT LIMITED, priority 2019, published 2022).
